Assay results reported in the supplement of paper PMC11208160.

assay: recombinant UMI read abundance after kanamycin selection (control-corrected) (log10(CPM+1)); higher = more efficient recombination; extreme values may be limits of the assay; sequences stand for … in AGTGCAGAGAAAATCGGCCAGTTTTCTCTGCCTGCAGTCCGCATGCCGTGGGACCCCTTGGGTTCTAACCTGTTGCCTAGATTTATGCAGCGGACTGCCTTTCTCCCAAAGTGATAAACCGG…AGGTTGGTTTCACT; site = the 11-nt donor
Method: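 Pooled E. coli donor-specificity screen for the IS621 bridge recombinase. Each library member carries a reprogrammed 11-nt donor and a full-length LE bridge RNA expressed in cis from the natural promoter, with a paired donor-binding loop (8-nt LDG + 4-nt RDG) and a target-binding loop fixed to T5. It is co-electroporated with a T5 target plasmid; recombinase is induced with 0.07 mM IPTG and recombinants are selected on kanamycin. UMIs are counted as CPM, averaged over two biological replicates and corrected by the unselected control. Molecule = full bridge RNA written as DNA, built from the T5 scaffold: LDG = donor specificity nt 1-8, RDG = reverse complement of nt 8-11.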
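Also: IS621 bridge recombinase in Escherichia coli cells against a fixed T5 target plasmid.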

Sequence | recombinant UMI read abundance (log10)
AAGCATACATGGACCGGTTTTCCCGGTAATCCGTATTTGAC (site AAGCATACTGT) | 2.88
AAGCCCGCATGGACCGGTTTTCCCGGTAATCCGTATTTGGG (site AAGCACGCTCC) | 0.00486
AAGCCCGCATGGACCGGTTTTCCCGGTAATCCGTATTTGGG (site AAGCCCGCTCC) | 0.0203
AAGCCCGCATGGACCGGTTTTCCCGGTAATCCGTATTTGGG (site AAGCGCGCTCC) | 0.0392
AAGCCCGCATGGACCGGTTTTCCCGGTAATCCGTATTTGGG (site AAGCTCGCTCC) | 0.0406
AAGCCGGCATGGACCGGTTTTCCCGGTAATCCGTATTTGGC (site AAGCCGGCTGC) | 0
AAGCGCTCATGGACCGGTTTTCCCGGTAATCCGTATTTGCG (site AAGCGCTCTCG) | 2.26
AAGGAAACATGGACCGGTTTTCCCGGTAATCCGTATTTGCA (site AAGGAAACTTG) | 2.06
AAGGAATCATGGACCGGTTTTCCCGGTAATCCGTATTTGCG (site AAGGAATCTCG) | 3.14
AAGGAATCATGGACCGGTTTTCCCGGTAATCCGTATTTGCG (site CAGGAATCTCG) | 2.38
AAGGAATCATGGACCGGTTTTCCCGGTAATCCGTATTTGCG (site GAGGAATCTCG) | 2.74
AAGGAATCATGGACCGGTTTTCCCGGTAATCCGTATTTGCG (site TAGGAATCTCG) | 3.08
AAGGACTCATGGACCGGTTTTCCCGGTAATCCGTATTTGTT (site AAGGACTCTAA) | 2.9
AAGGAGCCATGGACCGGTTTTCCCGGTAATCCGTATTTGGG (site AAGGAGCCTCC) | 0.00843
AAGGATGCATGGACCGGTTTTCCCGGTAATCCGTATTTGTG (site AAGGATGCTCA) | 2.3
AAGGCGACATGGACCGGTTTTCCCGGTAATCCGTATTTGGA (site AAGGCGACTTC) | 0.0223
AAGGGCCCATGGACCGGTTTTCCCGGTAATCCGTATTTGGC (site AAGGGCCCTGC) | 0.674
AAGGGGTCATGGACCGGTTTTCCCGGTAATCCGTATTTGAT (site AAGGGGTCTAT) | 2.94
AAGGGTTCATGGACCGGTTTTCCCGGTAATCCGTATTTGTC (site AAGGGTTCTGA) | 2.5
AAGGTTGCATGGACCGGTTTTCCCGGTAATCCGTATTTGCA (site AAGGTTGCTTG) | 2.22
AAGTAACCATGGACCGGTTTTCCCGGTAATCCGTATTTGGA (site AAGTAACCTTC) | 0.105
AAGTACGCATGGACCGGTTTTCCCGGTAATCCGTATTTGGG (site AAGAACGCTCC) | 0.14
AAGTACGCATGGACCGGTTTTCCCGGTAATCCGTATTTGGG (site AAGCACGCTCC) | 0.0289
AAGTACGCATGGACCGGTTTTCCCGGTAATCCGTATTTGGG (site AAGGACGCTCC) | 0.492

Sequence | recombinant UMI read abundance (log10)
AAGTACGCATGGACCGGTTTTCCCGGTAATCCGTATTTGGG (site AAGTACGCTCC) | 0.423
AAGTCCACATGGACCGGTTTTCCCGGTAATCCGTATTTGCT (site AAGTCCACTAG) | 1.56
AAGTTACCATGGACCGGTTTTCCCGGTAATCCGTATTTGAC (site AAGTTACCTGT) | 0
AATAGCCCATGGACCGGTTTTCCCGGTAATCCGTATTTGAC (site AATAGCCCTGT) | 1.07
AATAGTGCATGGACCGGTTTTCCCGGTAATCCGTATTTGAG (site AATAGTGCTCT) | 1.4
AATATAGCATGGACCGGTTTTCCCGGTAATCCGTATTTGCC (site AATATAGCTGG) | 1.53
AATATGACATGGACCGGTTTTCCCGGTAATCCGTATTTGTG (site AATATGACTCA) | 0.774
AATCACCCATGGACCGGTTTTCCCGGTAATCCGTATTTGCT (site AATCACCCTAG) | 0.532
AATCATACATGGACCGGTTTTCCCGGTAATCCGTATTTGGT (site AATCATACTAC) | 0.556
AATCTCACATGGACCGGTTTTCCCGGTAATCCGTATTTGCT (site AATCTCACTAG) | 1.64
AATCTCCCATGGACCGGTTTTCCCGGTAATCCGTATTTGCT (site AATCTCCCTAG) | 0.736
AATGAGTCATGGACCGGTTTTCCCGGTAATCCGTATTTGAC (site AATGAGTCTGT) | 3.25
AATGAGTCATGGACCGGTTTTCCCGGTAATCCGTATTTGAC (site AATGCGTCTGT) | 0
AATGAGTCATGGACCGGTTTTCCCGGTAATCCGTATTTGAC (site AATGGGTCTGT) | 0
AATGAGTCATGGACCGGTTTTCCCGGTAATCCGTATTTGAC (site AATGTGTCTGT) | 0.822
AATGAGTCATGGACCGGTTTTCCCGGTAATCCGTATTTGAT (site AATGAGTCTAT) | 2.52
AATGATCCATGGACCGGTTTTCCCGGTAATCCGTATTTGCG (site AATGATCCTCG) | 0.677
AATGGCCCATGGACCGGTTTTCCCGGTAATCCGTATTTGTA (site AATGGCCCTTA) | 0.0128
AATGTAACATGGACCGGTTTTCCCGGTAATCCGTATTTGAT (site AATGTAACTAA) | 0.00583
AATGTAACATGGACCGGTTTTCCCGGTAATCCGTATTTGAT (site AATGTAACTAC) | 0.00741
AATGTAACATGGACCGGTTTTCCCGGTAATCCGTATTTGAT (site AATGTAACTAG) | 0.00602
AATGTAACATGGACCGGTTTTCCCGGTAATCCGTATTTGAT (site AATGTAACTAT) | 2.15
AATGTAACATGGACCGGTTTTCCCGGTAATCCGTATTTGCA (site AATGTAACTAG) | 0
AATGTAACATGGACCGGTTTTCCCGGTAATCCGTATTTGCA (site AATGTAACTCG) | 0.0207

Sequence | recombinant UMI read abundance (log10)
AATGTAACATGGACCGGTTTTCCCGGTAATCCGTATTTGCA (site AATGTAACTGG) | 0
AATGTAACATGGACCGGTTTTCCCGGTAATCCGTATTTGCA (site AATGTAACTTG) | 1.78
AATGTAACATGGACCGGTTTTCCCGGTAATCCGTATTTGCC (site AATGTAACTAG) | 0
AATGTAACATGGACCGGTTTTCCCGGTAATCCGTATTTGCC (site AATGTAACTCG) | 0
AATGTAACATGGACCGGTTTTCCCGGTAATCCGTATTTGCC (site AATGTAACTGG) | 2.15
AATGTAACATGGACCGGTTTTCCCGGTAATCCGTATTTGCC (site AATGTAACTTG) | 1.34
AATGTAACATGGACCGGTTTTCCCGGTAATCCGTATTTGGT (site AATGTAACTAA) | 0.557
AATGTAACATGGACCGGTTTTCCCGGTAATCCGTATTTGGT (site AATGTAACTAC) | 1.36
AATGTAACATGGACCGGTTTTCCCGGTAATCCGTATTTGGT (site AATGTAACTAG) | 0
AATGTAACATGGACCGGTTTTCCCGGTAATCCGTATTTGGT (site AATGTAACTAT) | 0.468
AATGTAGCATGGACCGGTTTTCCCGGTAATCCGTATTTGCT (site AATGTAACTAG) | 0
AATGTAGCATGGACCGGTTTTCCCGGTAATCCGTATTTGCT (site AATGTACCTAG) | 0
AATGTAGCATGGACCGGTTTTCCCGGTAATCCGTATTTGCT (site AATGTAGCTAG) | 1.55
AATGTAGCATGGACCGGTTTTCCCGGTAATCCGTATTTGCT (site AATGTATCTAG) | 0.516
AATGTATCATGGACCGGTTTTCCCGGTAATCCGTATTTGAC (site AATGTATCTGT) | 3.11
AATGTATCATGGACCGGTTTTCCCGGTAATCCGTATTTGAC (site AATGTCTCTGT) | 0
AATGTATCATGGACCGGTTTTCCCGGTAATCCGTATTTGAC (site AATGTGTCTGT) | 0
AATGTATCATGGACCGGTTTTCCCGGTAATCCGTATTTGAC (site AATGTTTCTGT) | 0
AATGTCGCATGGACCGGTTTTCCCGGTAATCCGTATTTGGT (site AATGTCGCTAC) | 1.19
AATGTGCCATGGACCGGTTTTCCCGGTAATCCGTATTTGAC (site AATGTGACTGT) | 0
AATGTGCCATGGACCGGTTTTCCCGGTAATCCGTATTTGAC (site AATGTGCCTGT) | 0
AATGTGCCATGGACCGGTTTTCCCGGTAATCCGTATTTGAC (site AATGTGGCTGT) | 0
AATGTGCCATGGACCGGTTTTCCCGGTAATCCGTATTTGAC (site AATGTGTCTGT) | 0
AATGTGCCATGGACCGGTTTTCCCGGTAATCCGTATTTGCT (site AATGTGCCTAG) | 0.0116
